Legend:
Type in all cases: cell-based
CD4+ T-lymphocytes [1] = assay: Human primary leucocyte viability: CD4+ T-lymphocytes; conditions: 3 μM, 48 hours
Procedure: (§1) The effects of the reference compound (ABD735) on the viability of neutrophils, monocytes, CD4+ and CD8+ T-cells and B-lymphocytes was assessed under both resting and stimulated conditions. Resting conditions were used to assess likely effects on normal cells found in human blood, and stimulated conditions were used to assess the effects of the compound under disease conditions.
(§2) Effects on cell viability were assessed using flow cytometry. Flow cytometry is a laser-based, biophysical technology employed in cell counting, cell sorting, and biomarker detection, by suspending cells in a stream of fluid and passing them by an electronic detection apparatus. It allows simultaneous multi-parametric analysis of the physical and chemical characteristics of up to thousands of particles per second. The sorting of cells using flow cytometry requires the use of specific cell markers. To quantify cell numbers, counting beads are used as an internal standard. […] In addition, for B- and T-lymphocytes, cell proliferation was measured using a dye known as Cell Proliferation Dye (eFluor® 450). eFluor® 450 is an organic dye which can be conjugated to cell-specific markers. […]
(§3) The average results (n=3) for the reference compound (ABD735) were expressed as a fold change versus the average control value. […]

B-lymphocytes = assay: Human primary leucocyte proliferation: B-lymphocytes; conditions: 3 μM
Procedure: as §2, with “standard. Counting beads are a calibrated suspension of microbeads which are added to a known volume of sample so the sample volume per bead is known.” for “standard.”
PBMCs (peripheral blood mononuclear cells) were collected from healthy donors (all female) and isolated by centrifugation on a layer of Ficoll Paque (GE Healthcare, UK). […] Following incubation, the cells were stained with anti-human CD19, a marker of B-lymphocytes, before being analysed on a flow cytometer. […]
as §3

Neutrophils = assay: Human primary leucocyte viability: neutrophils; conditions: 3 μM, 24 hours
Procedure: as §1, §2, §3

CD4+ T-lymphocytes [2] = assay: Human primary leucocyte proliferation: CD4+ T-lymphocytes; conditions: 3 μM, 5 days
Procedure: as §2, with “standard. Counting beads are a calibrated suspension of microbeads which are added to a known volume of sample so the sample volume per bead is known.” for “standard.”
PBMCs (peripheral blood mononuclear cells) were collected from healthy donors (all female) and isolated by centrifugation on a layer of Ficoll Paque (GE Healthcare, UK). […] Following incubation, the cells were stained with either anti-human CD8 or CD4 before being analysed on a flow cytometer. […]
as §3

In the case of `Cc1cc(S(=O)(=O)N[C@H]2CC[C@H](O)CC2)ccc1-c1ccc(F)cc1F` [ABD735], the “Fold change in viability” value (CD4+ T-lymphocytes [1]; no stimulation) is reported as 0.9, the “Fold change in viability” value (CD4+ T-lymphocytes [1]; phytohaemagglutinin) is reported as 0.6 and the “Fold change in proliferation” value (B-lymphocytes; SAC/IL-2, 5 days) is reported as 0.6. For the same molecule, the “Fold change in proliferation” value (B-lymphocytes; no stimulation, 5 days) was 0.9, the “Fold change in viability” value (Neutrophils; Dexamethasone) was 0.8 and the “Fold change in viability” value (Neutrophils; no stimulation) was 1.0. The “Fold change in proliferation” value (CD4+ T-lymphocytes [2]; no stimulation) was 1 and the “Fold change in proliferation” value (CD4+ T-lymphocytes [2]; phytohaemagglutinin) was 0.6.
